Source: patent US20260327655A1, “SMALL-MOLECULE REGULATED ALTERNATIVE SPLICING” (priority 2023, published 2026)

Experiments:
[1] = test system: RS2-3 minigene (Firefly Luciferase), HEK-293T cells; test: Luciferase induction assay, RS2-3 with splice modulator compounds in HEK-293T cells; format: cell-based; settings: Homo sapiens, 18 hours, n of 3, read-out: Mean fold-induction of luciferase (relative to vehicle control)
Protocol: (§1) HEK-293T cells were cultured in DMEM+10% FBS, collected after trypsinization, and then dispensed into 96-well plates (cell culture-treated). Each well of the plate was seeded with 1.0×10^5 cells in 100 μL culture medium. After a 1-hour incubation in a tissue culture incubator (5% CO2, 37 degrees C.), plasmid DNA was complexed with a transfection reagent, such as Lipofectamine 3000, and added to respective wells on the plate. Each well received an equivalent of 100 ng of plasmid DNA complexed with 0.15 μL Lipofectamine. Triplicate wells were used for each condition tested in the experiment. The plasmid utilized in the experiment encoded a CMV promoter upstream of the RS2-3 variant that controlled the expression of a Firefly Luciferase gene followed by a SV40 polyadenylation signal. After a 10-minute incubation at room temperature, either DMSO vehicle or specified compound at specified dose was added to the wells of the plate. Plates were then incubated for 18 hours in a tissue culture incubator. Endpoint analysis was performed by adding 100 uL Steady-Luc Firefly Luciferase substrate to each well of the assay plate. After mixing, the liquid contents of each was transferred to a 96-well plate, mixed again for 2 min on an orbital shaker, and incubated at room temperature for 5 min. Finally, the luminescent signal from each well was measured with a with PerkinElmer Envision plate reader. The results of this assay show RS2-3 responded to the majority of the splice modulator compounds used (FIG. 13C) Bars represent mean+/−standard deviation of 3 wells normalized to vehicle controls.

[2] = test system: RS1-10 minigene (Firefly Luciferase), HEK-293T cells; test: Luciferase induction assay, RS1-10 with splice modulator compounds in HEK-293T cells; format: cell-based; settings: Homo sapiens, 18 hours, n of 3, read-out: Mean fold-induction of luciferase (relative to vehicle control)
Protocol: as §1, with “of the RS I-10 variant that” for “of the RS2-3 variant that”, “assay show RS1-10 responded to” for “assay show RS2-3 responded to”, “compounds used in a dose responsive manner (FIG. 9C).” for “compounds used (FIG. 13C)”, “manner (FIG. 9C). Bars represent” for “used (FIG. 13C) Bars represent”

[3] = test system: RS3-13 minigene (Firefly Luciferase), HEK-293T cells; test: Luciferase induction assay, RS3-13 with splice modulator compounds in HEK-293T cells; format: cell-based; settings: Homo sapiens, 18 hours, n of 3, read-out: Mean fold-induction of luciferase (relative to vehicle control)
Protocol: as §1, with “RS3-13” for “the RS2-3 variant”, “RS3-13” for “RS2-3”, “14D)” for “13C)”

RS2-1 and variants = test: Luciferase induction assay, RS2-1 and variants in HEK-293T cells; format: cell-based, human; settings: 300 nM (FIG. 13A), 18 hours, FIGS. 13A, 13B
Protocol: HEK-293T cells were cultured in DMEM+10% FBS, collected after trypsinization, and dispensed into 96-well plates (cell culture-treated). Each well of the plate was seeded with 1.0×10^5 cells in 100 μL culture medium. After a 1-hour incubation in the tissue culture incubator (5% CO2, 37° C.), plasmid DNA was complexed with a transfection reagent, such as Lipofectamine 3000, and added to respective wells on the plate. Each well received 100 ng of plasmid DNA complexed with 0.15 μL Lipofectamine 3000. The plasmids utilized in the experiment encoded a CMV promoter upstream of the RS2-1 construct and variants that controlled the expression of a Firefly Luciferase gene followed by a SV40 polyadenylation signal. After a 10-minute incubation at room temperature, either DMSO vehicle or 100B at specified doses was added to the wells of the plate. Plates were then incubated for 18 hours in a tissue culture incubator. Endpoint analysis was performed by adding 100 μL of a Luciferase substrate, such as Steady-Luc Firefly Luciferase substrate, to each well of the assay plate. The liquid contents of each was transferred to a 96-well plate, mixed again for 2 min on an orbital shaker, and incubated at room temperature for 5 min. Finally, the luminescent signal from each well was measured with a plate reader. […]

In the case of `Cc1cn2cc(-c3nc(=O)n4cc(N5CCNCC5)ccc4n3)cc(F)c2n1.Cl` [Compound 100B, 2-(8-fluoro-2-methylimidazo[1,2-a]pyridin-6-yl)-7-(piperazin-1-yl)-4H-pyrido[1,2-a][1,3,5]triazin-4-one hydrochloride], the fold induction at 0.1 µM ([1]; RS2-3, 100 nM) is reported as 9.79, the fold induction at 1 µM ([1]; RS2-3, 1,000 nM) is reported as 26.4 and the fold induction at 0.1 µM ([2]; RS1-10, 100 nM) is reported as 11.9. For the same compound, the fold induction at 1 µM ([2]; RS1-10, 1,000 nM) was 57.1, the fold induction at 0.1 µM ([3]; RS3-13, 100 nM) was 10 and the fold induction at 1 µM ([3]; RS3-13, 1,000 nM) was 42.4. The “fold induction of luciferase compared to vehicle, constructs vs RS2-1” value (RS2-1 and variants) was “The majority of the constructs show higher fold induction of luciferase”.
